# Assay results: BindingDB's records for doi:10.1016/j.bmc.2017.06.018 (Chungnam National University, 2017)
# Assay: Inhibition of IL-5 in mouse Y16 cells assessed as reduction in cell proliferation after 48 hrs by WST-1 assay
row,SMILES,IC50 [µM]
1,CCCNC(=O)N(CCO)Cc1coc2cccc(OCC3CCCCC3)c2c1=O,> 30
2,COc1ccc(CC(=O)N(CCO)Cc2coc3cccc(OCC4CCCCC4)c3c2=O)cc1,17.9
3,O=C(NC1CCCCC1)N(CCO)Cc1coc2cccc(OCC3CCCCC3)c2c1=O,17
4,CC(C)NC(=O)N(CCO)Cc1coc2cccc(OCC3CCCCC3)c2c1=O,> 30
5,CCOC(=O)N(CCO)Cc1coc2cccc(OCC3CCCCC3)c2c1=O,20.2
6,O=C(Nc1ccccc1)N(CCO)Cc1coc2cccc(OCC3CCCCC3)c2c1=O,17
7,O=c1c(-c2ccc(O[C@H]3O[C@@H](CO)[C@H](O)[C@@H](O)[C@@H]3O)cc2)coc2cc(O)cc(O)c12,10.6
8,CC(C)CCOc1cccc2occ(CN(CCO)C(=O)Nc3ccccc3)c(=O)c12,> 30
9,O=C(Nc1ccc(Cl)cc1)N(CCO)Cc1coc2cccc(OCC3CCCCC3)c2c1=O,> 30
10,CC(C)(C)CCOc1cccc2occ(CN(CCO)C(=O)Oc3ccccc3)c(=O)c12,> 30
11,O=C(Cc1ccccc1)N(CCO)Cc1coc2cccc(OCC3CCCCC3)c2c1=O,10
12,O=C(NCCCc1ccccc1)N(CCO)Cc1coc2cccc(OCC3CCCCC3)c2c1=O,15
13,COc1ccc(NC(=O)N(CCO)Cc2coc3cccc(OCC4CCCCC4)c3c2=O)cc1,18
14,CCCC(=O)N(CCO)Cc1coc2cccc(OCC3CCCCC3)c2c1=O,25.3
15,CC(C)(C)CCOc1cccc2occ(CN(CCO)C(=O)Cc3ccccc3)c(=O)c12,> 30
16,O=C(NCc1ccccc1)N(CCO)Cc1coc2cccc(OCC3CCCCC3)c2c1=O,18
17,CC(C)(C)CCOc1cccc2occ(CN(CCO)C(=O)Nc3ccccc3)c(=O)c12,> 30
18,CC(C)CCOc1cccc2occ(CN(CCO)C(=O)Oc3ccccc3)c(=O)c12,> 30
19,CCNC(=O)N(CCO)Cc1coc2cccc(OCC3CCCCC3)c2c1=O,> 30
20,CC(C)CCOc1cccc2occ(CN(CCO)C(=O)Cc3ccccc3)c(=O)c12,> 30
21,O=C(Oc1ccccc1)N(CCO)Cc1coc2cccc(OCC3CCCCC3)c2c1=O,25
22,CCC(=O)N(CCO)Cc1coc2cccc(OCC3CCCCC3)c2c1=O,25.2
